Read-outs that look alike come from different tables or passages of the source.
Assays:
[1] = tested on: HIV-1 expression in PBMC cultures from HIV-1 infected donors on cART; experiment: Induced HIV-1 expression in PBMC cultures from HIV-1 infected donors on cART (Example 208); format: cell-based, human; conditions: Tables 7-11; for fold induction at 0.156 µM / fold induction at 0.01 µM / fold induction at 2.5 µM: Human immunodeficiency virus 1, PBMC; for fold induction at 0.01 µM: read-out: Fold HIV-1 Induction, Geometric Mean, 0.01 μM
Experimental: Isolated PBMCs were treated with various concentrations (0.1, 1, and 10 μM) of the TLR7 modulating compounds (compounds of Example 4 and Example 49) or dimethyl sulfoxide (DMSO) treated (vehicle control) for 4 to 5 days. The cultures were maintained in the presence of antivirals (elvitegravir and efavirenz at 100 nM each) to prevent viral spread and amplification in order to measure initial virus production (latency reversal) created by the TLR7 modulating compounds. At the end of the incubation period cell-free culture supernatants were harvested and HIV-1 RNA levels were quantified by the COBAS® AmpliPrep/COBAS® TaqMan HIV-1 Test, v2.0 (Roche).
Using the method described above in Example 208, HIV-1 expression in PBMC cultures derived from four additional HIV-1 infected donors on cART were tested in the presence of the compounds of Examples 4, 29, 120, 121, 122, 123, 124, resiquimod, and imiquimod.

[2] = tested on: polyfunctional proliferating CD8 T cells (CFSE low, IFNg+, TNFa+); experiment: Induction of HIV-specific polyfunctional CD8 T cells by combination with an IDO1 inhibitor (Example 217); format: cell-based, human
Experimental: PBMCs from 4 HIV-infected donors (Donor IDs 180-183) on suppressive cART were isolated, as described previously, stained with CFSE, and treated with 500 ng/ml 15-mer peptide pools derived from overlapping HIV gag, pol, nef, and env consensus peptides (JPT Peptide Technologies GmbH). PBMC cultures were treated with DMSO or the compound of Example 49 (GS-9620) at 0.1 uM. In some cultures treated with Example 49, the IDO1 small molecule inhibitor, INCB024360, was combined at 2 μM. Cells were incubated at 37° C. for 8 days, then split into duplicate sets and stained in DPBS with LIVE/DEAD Fixable Aqua Dead Cell Stain (Life Technologies). The immune recall response was performed as previously described. FACS was performed on a LSR Fortessa (BD Biosciences) and data analysis was done with FlowJo software (TreeStar). Data was plotted and statistical analysis was done with GraphPad Prism software (GraphPad).

[3] = read-out: Fold HIV-1 Induction, Geometric Mean, 0.156 μM, donors 152-155
[4] = read-out: Fold HIV-1 Induction, Geometric Mean, 2.5 μM, donors 152-155

With CC(C)Cn1cnc2c(N)nc3ccccc3c21 [imiquimod, reference compound] the “Donors with ≥2-fold HIV-1 Induction” value ([1]; 0.01 μM) was 4 of 4, the “Donors with ≥2-fold HIV-1 Induction” value ([1]; 0.156 μM) was 4 of 4 and the “Donors with ≥2-fold HIV-1 Induction” value ([1]; 2.5 μM) was 3 of 4. The fold induction at 0.156 µM ([1]; 96 h, read-out: Fold HIV-1 Induction, 0.156 μM, per donor, supernatants Day 4, PBMCs added to pre-plated compounds) was 4.4, the fold induction at 0.01 µM ([1]; donors 152-155) was 4.3 and the fold induction at 0.156 µM [1, 3] was 5.4. The fold induction at 2.5 µM [1, 4] was 4.8.
CCc1nc2c(N)nc3ccccc3c2n1CCCCNS(C)(=O)=O [Example 123, N-(4-(4-amino-2-ethyl-1H-imidazo[4,5-c]quinolin-1-yl)butyl)methane sulfonamide, reference compound] was tested, and the “Donors with ≥2-fold HIV-1 Induction” value ([1]; 0.01 μM) was 2 of 4, the “Donors with ≥2-fold HIV-1 Induction” value ([1]; 0.156 μM) was 3 of 4 and the “Donors with ≥2-fold HIV-1 Induction” value ([1]; 2.5 μM) was 4 of 4. The fold induction at 2.5 µM ([1]; 96 h, read-out: Fold HIV-1 Induction, 2.5 μM, per donor, supernatants Day 4, PBMCs added to pre-plated compounds) was 3.3, the fold induction at 0.01 µM ([1]; donors 152-155) was 1.9 and the fold induction at 0.156 µM [1, 3] was 3.4. For the same compound, the fold induction at 2.5 µM [1, 4] was 5.1.
For COCCOc1nc(N)c2[nH]c(=O)n(Cc3ccc(-c4ccc(CN5CCCC5)cc4)cc3)c2c1Cl [Example 121, 4-amino-7-chloro-6-(2-methoxyethoxy)-1-((4′-(pyrrolidin-1-ylmethyl)-[1,1-biphenyl]-4-yl)methyl)-1H-imidazo[4,5-c]pyridin-2(3H)-one], the “Donors with ≥2-fold HIV-1 Induction” value ([1]; 0.01 μM) was 2 of 4, the “Donors with ≥2-fold HIV-1 Induction” value ([1]; 0.156 μM) was 2 of 4 and the “Donors with ≥2-fold HIV-1 Induction” value ([1]; 2.5 μM) was 4 of 4. It also gave a fold induction at 0.01 µM ([1]; donors 152-155) of 1.3, a fold induction at 0.156 µM [1, 3] of 1.3 and a fold induction at 2.5 µM [1, 4] of 2.9.
For Nc1nc(=O)c2sc(=O)n([C@@H]3O[C@H](CO)C[C@H]3O)c2[nH]1 [Example 124, 5-amino-3-((2R,3R,5S)-3-hydroxy-5-(hydroxymethyl)tetrahydrofuran-2-yl)thiazolo[4,5-d]pyrimidine-2,7(3H,4H)-dione, reference compound], the “Donors with ≥2-fold HIV-1 Induction” value ([1]; 0.01 μM) was 3 of 4, the “Donors with ≥2-fold HIV-1 Induction” value ([1]; 0.156 μM) was 2 of 4 and the “Donors with ≥2-fold HIV-1 Induction” value ([1]; 2.5 μM) was 2 of 4. The fold induction at 0.01 µM ([1]; donors 152-155) was 3.7, the fold induction at 0.156 µM [1, 3] was 1.8 and the fold induction at 2.5 µM [1, 4] was 1.6.
For COCCOc1cc2c([nH]c(=O)n2Cc2ccc(-c3ccc(CN4CCCC4)cc3)cc2)c(N)n1 [Example 120, 4-amino-6-(2-methoxyethoxy)-1-((4′-(pyrrolidin-1-ylmethyl)-[1,1-biphenyl]-4-yl)methyl)-1H-imidazo[4,5-c]pyridin-2(3H)-one], the “Donors with ≥2-fold HIV-1 Induction” value ([1]; 0.01 μM) was 4 of 4, the “Donors with ≥2-fold HIV-1 Induction” value ([1]; 0.156 μM) was 4 of 4 and the “Donors with ≥2-fold HIV-1 Induction” value ([1]; 2.5 μM) was 4 of 4. For the same compound, the fold induction at 0.01 µM ([1]; donors 152-155) was 3.9, the fold induction at 0.156 µM [1, 3] was 5.5 and the fold induction at 2.5 µM [1, 4] was 4.
Compound CCOCc1nc2c(N)nc3ccccc3c2n1CC(C)(C)O [resiquimod, reference compound] has a fold induction at 0.01 µM ([1]; donors 152-155) of 5, a fold induction at 0.156 µM [1, 3] of 6.9 and a fold induction at 2.5 µM [1, 4] of 7.4.
In the case of NS(=O)(=O)NCCNc1nonc1C(=NO)Nc1ccc(F)c(Br)c1 [INCB024360, reference compound], the “further increase of mean level of polyfunctional proliferating CD8 T cells (TLR7 only vs. TLR7+IDO1)” value [2] is reported as 70%.
COCCOc1nc(N)c2nc(O)n(Cc3ccccc3)c2n1 [Example 122, 6-amino-9-benzyl-2-(2-methoxyethoxy)-9H-purin-8-ol, reference compound] was tested, and the “Donors with ≥2-fold HIV-1 Induction” value ([1]; 0.01 μM) was 3 of 4, the “Donors with ≥2-fold HIV-1 Induction” value ([1]; 0.156 μM) was 3 of 4 and the “Donors with ≥2-fold HIV-1 Induction” value ([1]; 2.5 μM) was 4 of 4. It also gave a fold induction at 0.01 µM ([1]; donors 152-155) of 5, a fold induction at 0.156 µM [1, 3] of 4.8 and a fold induction at 2.5 µM [1, 4] of 6.9.

Reference: patent publication US11116774B2, “Modulators of toll-like receptors for the treatment of HIV” (Gilead Sciences, Inc., priority 2014, dated 2021)
